Source: patent US20180360705A1, “TOPICAL DELIVERY SYSTEM FOR ACTIVE INREDIENTS” (L'OREAL, priority 2015, published 2018)

Experiment: Maximum solubility of active ingredient in oils
Assay type: physicochemical
Details: room temperature, atmospheric pressure
Procedure: The maximum solubility of the active ingredients in the oil phase can be measured in any way which is known in the art. For example, an excess amount of the active ingredient is dissolved in the oil and mixed vigorously at elevated temperature, and then this sample is cooled down to room temperature and maintained for several hours to days. This mixture is centrifuged to separate an oil phase and the concentration of the active ingredient in the separated oil phase is measured using UV spectroscopy.
In the representative examples of the active ingredients of the present invention, the maximum solubilities of phenylethyl resorcinol and 4-(tetrahydro-2H-pyran-4-yl) benzene-1,3-diol in various oils measured at room temperature and under atmospheric pressure are shown below.

Structure (SMILES): CC(c1ccccc1)c1ccc(O)cc1O (stereo not shown) [Phenylethyl Resorcinol]
- maximum solubility in oil (Isododecane): 0.043%
- maximum solubility in oil (Isopropyl Lauroyl Sarcosinate): 42%
- maximum solubility in oil (Isopropyl Myristate): 36%
- maximum solubility in oil (Sesamum Indicum (Sesame) Seed Oil): 23%
